# Data taken from PubChem BioAssay AID1259407 (Chemical Carcinogenesis Research Information System (CCRIS), 2018).
# Calls of active or inactive are those of the source. The rule behind the calls is not given here.
# Test system: CCRIS mutagenicity, Ames/micronucleus/aberration tests
# Assay: CCRIS mutagenicity studies
smiles,measurement,setting,value
CCCl,mutagenic call,"Test System: AMES SALMONELLA TYPHIMURIUM, Strain/Indicator: TA98, Metabolic Activation: NONE, Method: DESICCATOR",inactive; negative
same,mutagenic call,"Test System: AMES SALMONELLA TYPHIMURIUM, Strain/Indicator: TA98, Metabolic Activation: NONE, Method: GAS EXPOSURE",inactive; negative
same,mutagenic call,"Test System: AMES SALMONELLA TYPHIMURIUM, Strain/Indicator: TA98, Metabolic Activation: RAT LIVER S-9, PHENOBARBITAL AND BETA-NAPHTHOFLAVONE, Method: GAS EXPOSURE",inactive; negative
same,mutagenic call,"Test System: AMES SALMONELLA TYPHIMURIUM, Strain/Indicator: TA98, Metabolic Activation: RAT, LIVER, S-9, AROCLOR 1254 (30%), Method: DESICCATOR",inactive; negative
same,mutagenic call,"Test System: AMES SALMONELLA TYPHIMURIUM, Strain/Indicator: TA98, Metabolic Activation: RAT, LIVER, S-9, PHENOBARBITAL AND 5,6-BENZOFLAVONE, Method: GAS EXPOSURE",inactive; negative
same,mutagenic call,"Test System: AMES SALMONELLA TYPHIMURIUM, Strain/Indicator: TA100, Metabolic Activation: HAMSTER, LIVER, S-9, AROCLOR 1254 (30%), Method: DESICCATOR",inactive; negative
same,mutagenic call,"Test System: AMES SALMONELLA TYPHIMURIUM, Strain/Indicator: TA100, Metabolic Activation: NONE, Method: DESICCATOR",inactive; negative
same,mutagenic call,"Test System: AMES SALMONELLA TYPHIMURIUM, Strain/Indicator: TA100, Metabolic Activation: NONE, Method: GAS EXPOSURE",active; positive
same,mutagenic call,"Test System: AMES SALMONELLA TYPHIMURIUM, Strain/Indicator: TA100, Metabolic Activation: RAT LIVER S-9, PHENOBARBITAL AND BETA-NAPHTHOFLAVONE, Method: GAS EXPOSURE",active; positive
same,mutagenic call,"Test System: AMES SALMONELLA TYPHIMURIUM, Strain/Indicator: TA100, Metabolic Activation: RAT, LIVER, S-9, PCB, Method: GAS EXPOSURE",inactive; negative
same,mutagenic call,"Test System: AMES SALMONELLA TYPHIMURIUM, Strain/Indicator: TA100, Metabolic Activation: RAT, LIVER, S-9, PHENOBARBITAL AND 5,6-BENZOFLAVONE, Method: GAS EXPOSURE",active; positive
same,mutagenic call,"Test System: AMES SALMONELLA TYPHIMURIUM, Strain/Indicator: TA1535, Metabolic Activation: HAMSTER, LIVER, S-9, AROCLOR 1254 (30%), Method: DESICCATOR",active; positive
same,mutagenic call,"Test System: AMES SALMONELLA TYPHIMURIUM, Strain/Indicator: TA1535, Metabolic Activation: NONE, Method: DESICCATOR",active; positive
same,mutagenic call,"Test System: AMES SALMONELLA TYPHIMURIUM, Strain/Indicator: TA1535, Metabolic Activation: NONE, Method: GAS EXPOSURE",active; positive
same,mutagenic call,"Test System: AMES SALMONELLA TYPHIMURIUM, Strain/Indicator: TA1535, Metabolic Activation: RAT LIVER S-9, PHENOBARBITAL AND BETA-NAPHTHOFLAVONE, Method: GAS EXPOSURE",active; positive
same,mutagenic call,"Test System: AMES SALMONELLA TYPHIMURIUM, Strain/Indicator: TA1535, Metabolic Activation: RAT, LIVER, S-9, AROCLOR 1254 (30%), Method: DESICCATOR",active; positive
same,mutagenic call,"Test System: AMES SALMONELLA TYPHIMURIUM, Strain/Indicator: TA1535, Metabolic Activation: RAT, LIVER, S-9, PHENOBARBITAL AND 5,6-BENZOFLAVONE, Method: GAS EXPOSURE",active; positive
same,mutagenic call,"Test System: AMES SALMONELLA TYPHIMURIUM, Strain/Indicator: TA1537, Metabolic Activation: NONE, Method: GAS EXPOSURE",inactive; negative
same,mutagenic call,"Test System: AMES SALMONELLA TYPHIMURIUM, Strain/Indicator: TA1537, Metabolic Activation: RAT LIVER S-9, PHENOBARBITAL AND BETA-NAPHTHOFLAVONE, Method: GAS EXPOSURE",inactive; negative
same,mutagenic call,"Test System: AMES SALMONELLA TYPHIMURIUM, Strain/Indicator: TA1537, Metabolic Activation: RAT, LIVER, S-9, PHENOBARBITAL AND 5,6-BENZOFLAVONE, Method: GAS EXPOSURE",inactive; negative
same,mutagenic call,"Test System: CHINESE HAMSTER OVARY, Strain/Indicator: CHO-K1 (HPRT)/6-THIOGUANINE, Metabolic Activation: NONE",active; positive
same,mutagenic call,"Test System: CHINESE HAMSTER OVARY, Strain/Indicator: CHO-K1 (HPRT)/6-THIOGUANINE, Metabolic Activation: RAT, LIVER, S-9, AROCLOR 1254",active; positive
same,mutagenic call,"Test System: E. COLI, Strain/Indicator: WP2 UVRA (PKM101), Metabolic Activation: RAT, LIVER, S-9, PCB, Method: GAS EXPOSURE",inactive; negative
same,mutagenic call,"Test System: E. COLI, Strain/Indicator: WP2 UVRA, Metabolic Activation: NONE, Method: GAS EXPOSURE",active; positive
same,mutagenic call,"Test System: E. COLI, Strain/Indicator: WP2 UVRA, Metabolic Activation: RAT, LIVER, S-9, PCB, Method: GAS EXPOSURE",inactive; negative
same,mutagenic call,"Test System: E. COLI, Strain/Indicator: WP2 UVRA, Metabolic Activation: RAT, LIVER, S-9, PHENOBARBITAL AND 5,6-BENZOFLAVONE, Method: GAS EXPOSURE",active; positive
same,mutagenic call,"Test System: E.COLI, Strain/Indicator: WP2UVRA, Metabolic Activation: NONE, Method: GAS EXPOSURE",active; positive
same,mutagenic call,"Test System: E.COLI, Strain/Indicator: WP2UVRA, Metabolic Activation: RAT LIVER S-9, PHENOBARBITAL AND BETA-NAPHTHOFLAVONE, Method: GAS EXPOSURE",active; positive
same,mutagenic call,"Test System: UDS MOUSE HEPATOCYTES, Strain/Indicator: THY INCORP, Metabolic Activation: NONE, Method: IN VIVO-IN VITRO",inactive; negative
CC(=O)N(O)c1ccc2ccccc2c1,mutagenic call,"Test System: AMES SALMONELLA TYPHIMURIUM, Strain/Indicator: TA98, Metabolic Activation: NONE, Method: PREINCUBATION",inactive; negative
same,mutagenic call,"Test System: AMES SALMONELLA TYPHIMURIUM, Strain/Indicator: TA98, Metabolic Activation: RAT, LIVER, CYTOSOL, Method: PREINCUBATION",inactive; negative
same,mutagenic call,"Test System: AMES SALMONELLA TYPHIMURIUM, Strain/Indicator: TA98, Metabolic Activation: RAT, LIVER, MICROSOMES, Method: PREINCUBATION",active; positive
